Measured values published in PubChem BioAssay (NCI).
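96-well plates; 48 h exposure; 5 concentrations. Endpoints by linear interpolation between flanking doses. Not reached: highest tested concentration assigned. TGI denotes the concentration required for complete inhibition of growth.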

Key:
Assay in all cases: NCI-60 cell line screen, 48 h
[1] = tested on: T-47D breast
[2] = tested on: MCF7 breast
[3] = tested on: NCI/ADR-RES ovarian
[4] = tested on: SF-539 CNS
[5] = tested on: K-562 leukemia
[6] = tested on: UACC-257 melanoma
[7] = tested on: OVCAR-8 ovarian
[8] = tested on: MDA-MB-435
[9] = tested on: NCI-H226 lung
[10] = tested on: LOX IMVI melanoma
[11] = tested on: SR leukemia
[12] = tested on: NCI-H23 lung
[13] = tested on: SN12C renal
[14] = tested on: NCI-H460 lung
[15] = tested on: BT-549 breast
[16] = tested on: OVCAR-5 ovarian
[17] = tested on: HT29 colon
[18] = tested on: MALME-3M melanoma
[19] = tested on: HCT-116 colon
[20] = tested on: HL-60(TB) leukemia
[21] = tested on: CAKI-1 renal
[22] = tested on: RPMI-8226 leukemia
[23] = tested on: OVCAR-4 ovarian
[24] = tested on: UO-31 renal
[25] = tested on: SNB-19 CNS
[26] = tested on: A549 NSCLC
[27] = tested on: DU-145 prostate
[28] = tested on: SNB-75 CNS
[29] = tested on: TK-10 renal
[30] = tested on: IGROV1 ovarian
[31] = tested on: UACC-62 melanoma
[32] = tested on: MDA-N
[33] = tested on: SK-MEL-5 melanoma
[34] = tested on: SF-295 CNS
[35] = tested on: KM12 colon
[36] = tested on: SK-OV-3 ovarian
[37] = tested on: ACHN renal
[38] = tested on: MDA-MB-231 breast
[39] = tested on: CCRF-CEM leukemia
[40] = tested on: EKVX NSCLC
[41] = tested on: NCI-H522 lung
[42] = tested on: SW-620 colon
[43] = tested on: MOLT-4 leukemia
[44] = tested on: RXF 393 renal
[45] = tested on: M14 melanoma
[46] = tested on: OVCAR-3 ovarian
[47] = tested on: HCT-15 colon
[48] = tested on: HOP-92 NSCLC
[49] = tested on: U251 CNS
[50] = tested on: COLO 205 colon
[51] = tested on: 786-0 renal
[52] = tested on: SK-MEL-28 melanoma
[53] = tested on: HOP-62 NSCLC
[54] = tested on: HCC-2998 colon
[55] = tested on: SF-268 CNS
[56] = tested on: SK-MEL-2 melanoma
[57] = tested on: HS 578T breast
[58] = tested on: PC-3 prostate

In the case of `CC1(C)C=C(/C=N/Nc2ccc([N+](=O)[O-])cc2)C(C#N)=C(O)C1(C#N)C#N`, the TGI [1] was over 100 µM, the TGI [2] was over 100 µM and the TGI [3] was over 100 µM. For the same compound, the TGI [4] was over 100 µM, the TGI [5] was over 100 µM and the TGI [6] was over 100 µM. The TGI [7] was over 100 µM, the TGI [8] was over 100 µM and the TGI [9] was over 100 µM. The TGI [10] was over 100 µM, the TGI [11] was over 100 µM and the TGI [12] was over 100 µM. It also gave a TGI [13] of over 100 µM, a TGI [14] of over 100 µM and a TGI [15] of over 100 µM. For the same compound, the TGI [16] was over 100 µM, the TGI [17] was over 100 µM and the TGI [18] was over 100 µM. The TGI [19] was over 100 µM, the TGI [20] was over 100 µM and the TGI [21] was over 100 µM. It also gave a TGI [22] of over 100 µM, a TGI [23] of over 100 µM and a TGI [24] of over 100 µM. For the same compound, the TGI [25] was over 100 µM, the TGI [26] was over 100 µM and the TGI [27] was over 100 µM. The TGI [28] was over 100 µM, the TGI [29] was over 100 µM and the TGI [30] was over 100 µM. The TGI [31] was over 100 µM, the TGI [32] was over 100 µM and the TGI [33] was over 100 µM. It also gave a TGI [34] of over 100 µM, a TGI [35] of over 100 µM and a TGI [36] of over 100 µM. For the same compound, the TGI [37] was over 100 µM, the TGI [38] was over 100 µM and the TGI [39] was over 100 µM. The TGI [40] was over 100 µM, the TGI [41] was over 100 µM and the TGI [42] was over 100 µM. It also gave a TGI [43] of over 100 µM, a TGI [44] of over 100 µM and a TGI [45] of over 100 µM. For the same compound, the TGI [46] was over 100 µM, the TGI [47] was over 100 µM and the TGI [48] was over 100 µM. For the same compound, the TGI [49] was over 100 µM, the TGI [50] was over 100 µM and the TGI [51] was over 100 µM. For the same compound, the TGI [52] was over 100 µM, the TGI [53] was over 100 µM and the TGI [54] was over 100 µM. The TGI [55] was over 100 µM, the TGI [56] was over 100 µM and the TGI [57] was over 100 µM. The TGI [58] was over 100 µM.

`Nc1ccccc1N/C(=C\C(=O)C(Cl)(Cl)Cl)c1ccccc1` gave a TGI [1] of 91.6 µM, a TGI [2] of 83.4 µM and a TGI [3] of over 100 µM. The TGI [4] was 36.1 µM, the TGI [5] was over 100 µM and the TGI [6] was 79.1 µM. For the same compound, the TGI [7] was over 100 µM, the TGI [8] was over 100 µM and the TGI [9] was over 100 µM. For the same compound, the TGI [10] was 35.6 µM, the TGI [11] was over 100 µM and the TGI [12] was over 100 µM. For the same compound, the TGI [13] was 45.6 µM, the TGI [14] was 69.4 µM and the TGI [15] was 91.6 µM. For the same compound, the TGI [16] was 41.5 µM, the TGI [17] was over 100 µM and the TGI [18] was 37.7 µM. It also gave a TGI [19] of 38.2 µM, a TGI [20] of 55.3 µM and a TGI [21] of over 100 µM. For the same compound, the TGI [22] was 86 µM, the TGI [23] was over 100 µM and the TGI [24] was 39 µM. For the same compound, the TGI [25] was over 100 µM, the TGI [26] was over 100 µM and the TGI [27] was over 100 µM. For the same compound, the TGI [28] was over 100 µM, the TGI [29] was over 100 µM and the TGI [30] was 71 µM. For the same compound, the TGI [31] was 45.3 µM, the TGI [32] was 39 µM and the TGI [33] was 29 µM. The TGI [34] was over 100 µM, the TGI [35] was over 100 µM and the TGI [36] was over 100 µM. It also gave a TGI [37] of 75.4 µM, a TGI [38] of 36.2 µM and a TGI [39] of over 100 µM. The TGI [40] was 63.1 µM, the TGI [41] was 35 µM and the TGI [42] was over 100 µM. For the same compound, the TGI [43] was over 100 µM, the TGI [44] was 53.4 µM and the TGI [45] was 42.2 µM. The TGI [46] was 65.2 µM, the TGI [47] was 80.4 µM and the TGI [48] was 41.8 µM. It also gave a TGI [49] of 32 µM, a TGI [50] of 98.1 µM and a TGI [51] of 54.3 µM. For the same compound, the TGI [52] was over 100 µM, the TGI [53] was 75.1 µM and the TGI [54] was 34.9 µM. For the same compound, the TGI [55] was 70.4 µM, the TGI [56] was 28.6 µM and the TGI [57] was over 100 µM. It also gave a TGI [58] of 68.8 µM.

`CCOC(=O)C(NC(=O)c1ccccc1)(Nc1ccc(S(=O)(=O)Nc2nc(C)cc(C)n2)cc1)C(F)(F)F` (stereo not drawn) gave a TGI [1] of over 100 µM, a TGI [2] of over 100 µM and a TGI [3] of over 100 µM. For the same compound, the TGI [4] was over 100 µM, the TGI [5] was over 100 µM and the TGI [6] was over 100 µM. It also gave a TGI [7] of over 100 µM, a TGI [8] of over 100 µM and a TGI [9] of over 100 µM. The TGI [10] was over 100 µM, the TGI [11] was over 100 µM and the TGI [12] was over 100 µM. It also gave a TGI [13] of over 100 µM, a TGI [14] of over 100 µM and a TGI [15] of over 100 µM. The TGI [16] was over 100 µM, the TGI [17] was over 100 µM and the TGI [18] was over 100 µM. The TGI [19] was over 100 µM, the TGI [20] was over 100 µM and the TGI [21] was over 100 µM. It also gave a TGI [22] of over 100 µM, a TGI [23] of over 100 µM and a TGI [24] of over 100 µM. The TGI [25] was over 100 µM, the TGI [26] was over 100 µM and the TGI [27] was over 100 µM. For the same compound, the TGI [28] was over 100 µM, the TGI [29] was over 100 µM and the TGI [30] was over 100 µM. The TGI [31] was over 100 µM, the TGI [32] was over 100 µM and the TGI [33] was over 100 µM. For the same compound, the TGI [34] was over 100 µM, the TGI [35] was over 100 µM and the TGI [36] was over 100 µM. It also gave a TGI [37] of over 100 µM, a TGI [38] of over 100 µM and a TGI [39] of over 100 µM. For the same compound, the TGI [40] was over 100 µM, the TGI [42] was over 100 µM and the TGI [43] was over 100 µM. The TGI [44] was over 100 µM, the TGI [45] was over 100 µM and the TGI [46] was over 100 µM. The TGI [47] was over 100 µM, the TGI [48] was over 100 µM and the TGI [49] was over 100 µM. It also gave a TGI [50] of over 100 µM, a TGI [51] of over 100 µM and a TGI [52] of over 100 µM. For the same compound, the TGI [53] was over 100 µM, the TGI [54] was over 100 µM and the TGI [55] was over 100 µM. The TGI [56] was over 100 µM, the TGI [57] was over 100 µM and the TGI [58] was over 100 µM.
